Results taken from patent US9724358B2, “Minocycline compounds and methods of use thereof” (Paratek Pharmaceuticals, Inc., priority 2008, dated 2017).

Assays:
GNR = test: Phase 2 CSSSI study, clinical outcome by organism: GNR; format: in vivo, gram-negative rods; details: ME population
Description: (§1) A randomized (1:1), controlled, evaluator-blinded Phase 2 study comparing 9-[(2,2-dimethyl-propyl amino)-methyl-minocycline (compound 1) and linezolid (Zyvox™) for the treatment of complicated skin and skin structure infections (CSSSI) was conducted. Patients with CSSSI who required initial intravenous (IV) therapy and met inclusion and exclusion criteria were enrolled at 11 centers in the US and were randomized to receive either compound 1 (100 mg Q24 h IV with 200 mg Q24 h oral step-down) or linezolid (600 mg Q12 h IV with 600 mg Q12 h oral step-down).
(§2) An infecting pathogen was defined as an isolate derived from the last positive culture taken from the site of infection under study prior to and including day 1.

[1] = system: complicated skin and skin structure infections (CSSSI); test: Phase 2 study in CSSSI, clinical outcome at test of cure; format: in vivo, human
Description: as §1
(§3) All subjects had four structured evaluations: at Enrollment (Baseline); at End of IV Treatment; at End of Treatment; and at 10 to 17 days after last dose of treatment (test of cure (TOC) evaluation). In addition, the blinded investigator saw each subject daily while they were on IV therapy and at least every 3 days while receiving oral treatment to determine whether to continue current treatment, switch from IV to oral therapy, or discontinue treatment.
At each of the four structured evaluations, the blinded evaluator assessed the subject, with particular attention to scoring the findings at the primary site of infection and obtaining cultures. Clinical and microbiologic outcomes were determined using these assessments. Primary evaluation criteria was safety and tolerability compared with linezolid. Secondary evaluation criteria was efficacy of compound 1 compared to linezolid, as well as pharmacokinetics of compound 1.
At each scheduled evaluation, the blinded evaluator examined the primary site of infection; for patients with multiple non-contiguous areas of infection, the blinded evaluator identified the most severely affected portion at Enrollment and designated that as the primary site of infection. The following information was recorded for each patient: maximal linear dimension of area of continuous involvement of infection; maximal linear dimension of ulceration, if present; semi-qualitative (scale of 0 to 3; none, mild, marked, severe) description of infection for the following features: erythema, edema/induration, fluctuance, necrotic tissue, purulence (including drainage), and tenderness/pain. In addition, at the Enrollment Evaluation, the following were also recorded the anatomical location of the primary site of infection; and the clinical diagnosis of the type of the infection.
Both the investigational drug, compound 1, and the comparator drug, Zyvox™ were administered intravenously and orally. Patients randomized to linezolid may have received aztreonam IV for suspected or documented gram-negative infection. Subjects were initially treated with study drug IV and then switched to oral therapy. The expected duration of IV treatment was up to 7 days; the expected total duration of treatment (IV and oral) was up to 14 days.
For IV administration, the HCl salt of compound 1 for injection was given as 100 mg in 100 ml sterile saline infused over 30 minutes q24 h. For oral administration, compound 1 100 mg capsules were taken fasting as 2 capsules with 8 oz. water q24 h. No food was to be taken for 30 to 60 minutes after dosing and no dairy products for 4 hours.
Linezolid (Zyvox™) 600 mg tablets and pre-mixed 600 mg IV infusion solution (300 ml volume) were obtained from commercial sources. Linezolid 600 mg IV was administered as a 30 minute infusion.
Efficacy analyses were performed on several populations of subjects. Subjects were analyzed for efficacy according to randomization, regardless of treatment administered.
The Intent-to-Treat (ITT) population includes all enrolled subjects who received at least one dose of study medication.
The modified Intent-to-Treat (mITT) population comprises all subjects in the ITT population who have an Infecting Pathogen isolated at prior to administration of the study compound. […]

MRSA = test: Phase 2 CSSSI study, clinical outcome by organism: MRSA; format: in vivo, Staphylococcus aureus; details: for Clinical outcome Failure (number) / Clinical outcome Success (number): ME population, MRSA; for clinical success rate against MRSA: as determined in the trials of the Exemplification
Description: as §1, §2

[2] = Phase 2 CSSSI study, subject disposition (discontinuations); format: in vivo, human; details: ITT population
Description: as §1, §3

B-Strep = test: Phase 2 CSSSI study, clinical outcome by organism: B-Strep; format: in vivo, B-streptococci; details: for Clinical outcome Failure (number) / Clinical outcome Success (number): ME population, B-Strep; for clinical success rate against B. streptococci: as determined in the trials of the Exemplification
Description: as §1, §2

[3] = clinically evaluable population
[4] = microbiologically evaluable population

With `CN(C)c1cc(CNCC(C)(C)C)c(O)c2c1C[C@H]1C[C@H]3[C@H](N(C)C)C(O)=C(C(N)=O)C(=O)[C@@]3(O)C(O)=C1C2=O` [Compound 1, 9-[(2,2-dimethyl-propylamino)-methyl]-minocycline] the “Clinical outcome Failure (number)” value (GNR) was 2, the “Clinical outcome Success (number)” value (GNR) was 7 and the “Clinical Failure (% of subjects)” value ([1]; ITT population) was “(11.7%)”. The “Clinical Failure (number of subjects)” value ([1]; ITT population) was 13, the “Clinical Failure: Failure (% of subjects)” value ([1]; ITT population) was “(1.8%)” and the “Clinical Failure: Failure (number of subjects)” value ([1]; ITT population) was 2. For the same molecule, the “Clinical Failure: Nonevaluable (% of subjects)” value ([1]; ITT population) was “(9.9%)”, the “Clinical Failure: Nonevaluable (number of subjects)” value ([1]; ITT population) was 11 and the “Clinical Success (% of subjects)” value ([1]; ITT population) was “(88.3%)”. For the same molecule, the “Clinical Success (number of subjects)” value ([1]; ITT population) was 98, the “Clinical Success (% of subjects)” value ([1]; ITT population, listed as compound 1) was 88.3% and the “Clinical Failure (% of subjects)” value [1, 3] was 2.0%. The “Clinical Failure (number of subjects)” value [1, 3] was 2, the “Clinical Success (% of subjects)” value [1, 3] was 98.0% and the “Clinical Success (number of subjects)” value [1, 3] was 98. The “Clinical Success (% of subjects)” value ([1]; clinically evaluable population, listed as compound 1) was 98%, the “Clinical Failure (% of subjects)” value ([1]; mITT population) was “(10.7%)” and the “Clinical Failure (number of subjects)” value ([1]; mITT population) was 9. For the same molecule, the “Clinical Failure: Failure (% of subjects)” value ([1]; mITT population) was “(2.4%)”, the “Clinical Failure: Failure (number of subjects)” value ([1]; mITT population) was 2 and the “Clinical Failure: Nonevaluable (% of subjects)” value ([1]; mITT population) was “(8.3%)”. The “Clinical Failure: Nonevaluable (number of subjects)” value ([1]; mITT population) was 7, the “Clinical Success (% of subjects)” value ([1]; mITT population) was “(89.3%)” and the “Clinical Success (number of subjects)” value ([1]; mITT population) was 75. The “Clinical Failure (% of subjects)” value [1, 4] was 2.6%, the “Clinical Failure (number of subjects)” value [1, 4] was 2 and the “Clinical Success (% of subjects)” value [1, 4] was 97.4%. The “Clinical Success (number of subjects)” value [1, 4] was 75, the “Clinical outcome Failure (number)” value (MRSA) was 0 and the “Clinical outcome Success (number)” value (MRSA) was 42. For the same molecule, the “Clinical outcome Failure (number)” value (MRSA; listed as compound 1) was “none”, the “clinical success rate against MRSA” value (MRSA) was 100% and the “Premature Discontinuation (% of subjects)” value [2] was “(4.5%)”. The “Premature Discontinuation (number of subjects)” value [2] was 5, the “Premature Discontinuation due to Adverse Event (% of subjects)” value [2] was “(0.9%)” and the “Premature Discontinuation due to Adverse Event (number of subjects)” value [2] was 1. The “Premature Discontinuation due to Treatment Failure (% of subjects)” value [2] was “(0.9%)”, the “Premature Discontinuation due to Treatment Failure (number of subjects)” value [2] was 1 and the “Premature Discontinuation due to Adverse Event (number of subjects)” value ([2]; listed as compound 1) was “no discontinuations”. The “Clinical outcome Failure (number)” value (B-Strep) was 0, the “Clinical outcome Success (number)” value (B-Strep) was 6 and the “clinical success rate against B. streptococci” value (B-Strep) was 100%.
In the case of `CC(=O)NCC1CN(c2ccc(N3CCOCC3)c(F)c2)C(=O)O1` (stereo not shown) [Linezolid, N-[[3-(3-fluoro-4-morpholinophenyl)-2-oxooxazolidin-5-yl]methyl]acetamide, reference compound], the “Clinical outcome Failure (number)” value (GNR) is reported as 0, the “Clinical outcome Success (number)” value (GNR) is reported as 7 and the “Clinical Failure (% of subjects)” value ([1]; ITT population) is reported as 24.1%. The “Clinical Failure (number of subjects)” value ([1]; ITT population) was 26, the “Clinical Failure: Failure (% of subjects)” value ([1]; ITT population) was 5.6% and the “Clinical Failure: Failure (number of subjects)” value ([1]; ITT population) was 6. For the same molecule, the “Clinical Failure: Nonevaluable (% of subjects)” value ([1]; ITT population) was 18.5%, the “Clinical Failure: Nonevaluable (number of subjects)” value ([1]; ITT population) was 20 and the “Clinical Success (% of subjects)” value ([1]; ITT population) was 75.9%. For the same molecule, the “Clinical Success (number of subjects)” value ([1]; ITT population) was 82, the “Clinical Failure (% of subjects)” value [1, 3] was 6.8% and the “Clinical Failure (number of subjects)” value [1, 3] was 6. The “Clinical Success (% of subjects)” value [1, 3] was 93.2%, the “Clinical Success (number of subjects)” value [1, 3] was 82 and the “Clinical Failure (% of subjects)” value ([1]; mITT population) was 24.4%. For the same molecule, the “Clinical Failure (number of subjects)” value ([1]; mITT population) was 19, the “Clinical Failure: Failure (% of subjects)” value ([1]; mITT population) was 5.1% and the “Clinical Failure: Failure (number of subjects)” value ([1]; mITT population) was 4. The “Clinical Failure: Nonevaluable (% of subjects)” value ([1]; mITT population) was 19.2%, the “Clinical Failure: Nonevaluable (number of subjects)” value ([1]; mITT population) was 15 and the “Clinical Success (% of subjects)” value ([1]; mITT population) was 75.6%. The “Clinical Success (number of subjects)” value ([1]; mITT population) was 59, the “Clinical Failure (% of subjects)” value [1, 4] was 6.3% and the “Clinical Failure (number of subjects)” value [1, 4] was 4. For the same molecule, the “Clinical Success (% of subjects)” value [1, 4] was 93.7%, the “Clinical Success (number of subjects)” value [1, 4] was 59 and the “Clinical outcome Failure (number)” value (MRSA) was 2. The “Clinical outcome Success (number)” value (MRSA) was 30, the “clinical success rate against MRSA” value (MRSA) was 93% and the “Premature Discontinuation (% of subjects)” value [2] was “(7.4%)”. For the same molecule, the “Premature Discontinuation (number of subjects)” value [2] was 8, the “Premature Discontinuation due to Adverse Event (% of subjects)” value [2] was “(1.9%)” and the “Premature Discontinuation due to Adverse Event (number of subjects)” value [2] was 2. For the same molecule, the “Premature Discontinuation due to Treatment Failure (number of subjects)” value [2] was 0, the “Clinical outcome Failure (number)” value (B-Strep) was 2 and the “Clinical outcome Success (number)” value (B-Strep) was 0. For the same molecule, the “clinical success rate against B. streptococci” value (B-Strep) was 0%.
